Reference: paper PMC9596378, “Discovery and molecular basis of subtype-selective cyclophilin inhibitors” (Nature Chemical Biology, 2022)
Read-outs that look alike come from different tables or passages of the source. Each block holds one molecule with its values, some of them ahead of it.

Tests used:
PPIL1 = biological target: T1, PPIL1 (Homo sapiens, UniProt Q9Y3C6); test: Chymotrypsin coupled prolyl-isomerase assay; assay type: biochemical
T1 construct: PPIL1 (UniProtKB Entry Q9Y3C6: residues 1–166); made in house; host or cells: E. coli BL21(DE3)
T1 sequence (Q9Y3C6 1-166): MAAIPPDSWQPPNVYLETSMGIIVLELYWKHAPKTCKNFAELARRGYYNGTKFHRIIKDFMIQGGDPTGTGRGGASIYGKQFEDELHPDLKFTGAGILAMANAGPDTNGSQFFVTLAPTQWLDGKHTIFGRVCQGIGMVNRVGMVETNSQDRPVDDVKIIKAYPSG

CypC = biological target: T2, CypC (Homo sapiens, UniProt P45877); test: Chymotrypsin coupled prolyl-isomerase assay; assay type: biochemical
T2 construct: PPIC (UniProtKB Entry P45877: residues 24–212); host or cells: E. coli BL21(DE3)
T2 sequence (P45877 24-212): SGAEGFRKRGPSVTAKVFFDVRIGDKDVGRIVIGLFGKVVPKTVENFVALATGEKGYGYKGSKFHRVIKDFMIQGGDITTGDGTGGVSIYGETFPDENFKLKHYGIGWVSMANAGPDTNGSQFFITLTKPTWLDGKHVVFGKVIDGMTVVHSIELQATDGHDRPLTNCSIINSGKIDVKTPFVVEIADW
Experimental: (§1) Adapting a previously described protocol, with an Agilent Bravo Velocity 11 with a 384ST head, 90 µL assay buffer (25 mM HEPES pH 7.3, 100 mM NaCl, 0.01% Triton X-100) containing 5.28 nM cyclophilin was added into a flat, clear-bottom, black 384-well plate pre-chilled in a Corning CoolBox at 2–3 °C. Five microliters of compound pre-dissolved in 5% DMSO/assay buffer was then added to appropriate wells and incubated at 2–3 °C for 5 min. Five microliters of 0.5 mM α-chymotrypsin from bovine pancreas (Type II, lyophilized powder, Millipore-Sigma) in 20% 1 mM HCl/Assay Buffer was then added to each well and incubated at 2–3 °C for 5 min. The plate was then quickly transferred to a FLIPR Tetra High-Throughput Cellular Screening System (Molecular Devices). Using the internal liquid handling system of the FLIPR, 1 µL 0.5 mM Suc-AAPF-AMC (Chymotrypsin Substrate II, Millipore-Sigma) dissolved in 0.55 M LiCl/2,2,2-trifluoroethanol was added to each well, which was then mixed for 5 s, followed by immediate fluorescence measurements every 1 s for 330 s using a 360–380 nm excitation LED module and a 400–460 nm emission filter. Final concentrations of the plate include 5 nM cyclophilin, 0.25% DMSO, 25 µM α-chymotrypsin, 5 µM Suc-AAPF-AMC. Raw fluorescence data was analyzed by non-linear regression analysis with Prism v.9 by fitting one-phase association curves to each well. […] Rate constants calculated for each well (s^−1) were then normalized to substrate only (no prolyl-isomerase) and enzyme + substrate only controls. IC50 values were calculated as the value at which 50% inhibition was achieved on the non-linear regression fitted curve of each compound.

CypA = biological target: T3, CypA (Homo sapiens, UniProt P62937); test: Chymotrypsin coupled prolyl-isomerase assay; assay type: biochemical
T3 construct: PPIA (UniProtKB Entry P62937: residues 1–165); made in house; host or cells: E. coli BL21(DE3)
T3 sequence (P62937 whole entry, the tested form may be a part): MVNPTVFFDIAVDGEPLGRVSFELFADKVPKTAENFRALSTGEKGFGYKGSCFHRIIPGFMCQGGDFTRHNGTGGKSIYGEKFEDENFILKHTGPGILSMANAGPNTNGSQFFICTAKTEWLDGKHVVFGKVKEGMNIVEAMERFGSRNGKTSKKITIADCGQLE
Experimental: as §1

CypE = biological target: T4, CypE (Homo sapiens, UniProt Q9UNP9); test: Chymotrypsin coupled prolyl-isomerase assay; assay type: biochemical
T4 construct: PPIE (UniProtKB Entry Q9UNP9: residues 131–301); host or cells: E. coli BL21(DE3)
T4 sequence (Q9UNP9 131-301): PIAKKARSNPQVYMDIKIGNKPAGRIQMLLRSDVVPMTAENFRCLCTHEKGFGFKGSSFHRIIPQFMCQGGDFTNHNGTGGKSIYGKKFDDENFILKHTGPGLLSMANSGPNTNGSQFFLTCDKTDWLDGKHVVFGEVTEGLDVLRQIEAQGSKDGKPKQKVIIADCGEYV
Experimental: as §1

CypH = biological target: T5, CypH (Homo sapiens, UniProt O43447); test: Chymotrypsin coupled prolyl-isomerase assay; assay type: biochemical
T5 construct: PPIH (UniProtKB Entry O43447: residues 1–177); His6 with TEV site (2BT vector leader) (N); made in house; host or cells: E. coli BL21(DE3)
T5 sequence (O43447 whole entry, the tested form may be a part): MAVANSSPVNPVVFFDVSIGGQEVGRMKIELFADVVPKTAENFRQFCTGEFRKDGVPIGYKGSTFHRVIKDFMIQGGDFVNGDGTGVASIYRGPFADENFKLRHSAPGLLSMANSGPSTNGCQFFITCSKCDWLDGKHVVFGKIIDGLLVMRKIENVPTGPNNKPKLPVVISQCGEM
Experimental: as §1

CypG = biological target: T6, CypG (Homo sapiens, UniProt Q13427); test: Chymotrypsin coupled prolyl-isomerase assay; assay type: biochemical
T6 construct: PPIG (UniProtKB Entry Q13427: residues 1–179); His6 with thrombin site (pET28a LIC leader) (N); host or cells: E. coli BL21(DE3)
T6 sequence (Q13427 1-179): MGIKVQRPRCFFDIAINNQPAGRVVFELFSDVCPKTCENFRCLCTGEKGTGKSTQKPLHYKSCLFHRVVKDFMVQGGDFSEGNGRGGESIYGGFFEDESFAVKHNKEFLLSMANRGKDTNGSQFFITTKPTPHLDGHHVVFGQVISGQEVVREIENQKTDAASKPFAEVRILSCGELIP
Experimental: as §1

CypB = biological target: T7, CypB (Homo sapiens, UniProt P23284); test: biochemical
T7 construct: PPIB (UniProtKB Entry P23284: residues 34–216); His6 with TEV site (2BT vector leader) (N); made in house; host or cells: E. coli BL21(DE3)
T7 sequence (P23284 34-216): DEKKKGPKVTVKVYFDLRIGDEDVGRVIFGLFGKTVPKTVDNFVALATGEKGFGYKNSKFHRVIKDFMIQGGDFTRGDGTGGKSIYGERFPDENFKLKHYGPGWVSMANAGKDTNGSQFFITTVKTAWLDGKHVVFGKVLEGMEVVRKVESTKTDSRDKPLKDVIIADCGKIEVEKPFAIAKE
Experimental: as §1

NKTR = biological target: T8, NKTR (Homo sapiens, UniProt P30414); test: Chymotrypsin coupled prolyl-isomerase assay; assay type: biochemical
T8 construct: NKTR (UniProtKB Entry P30414: residues 7–179); host or cells: E. coli BL21(DE3)
T8 sequence (P30414 7-179): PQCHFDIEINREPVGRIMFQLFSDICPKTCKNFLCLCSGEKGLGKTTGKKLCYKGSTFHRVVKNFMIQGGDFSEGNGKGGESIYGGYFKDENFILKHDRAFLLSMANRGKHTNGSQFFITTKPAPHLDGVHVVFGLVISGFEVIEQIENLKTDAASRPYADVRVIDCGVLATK

[1] = wild-type PPIL1, read-out: Wild-Type Cyclophilin Prolyl Isomerase Inhibition IC50 Values, PPIL1
[2] = wild-type CypC, read-out: Wild-Type Cyclophilin Prolyl Isomerase Inhibition IC50 Values, CypC
[3] = wild-type CypE, read-out: Wild-Type Cyclophilin Prolyl Isomerase Inhibition IC50 Values, CypE
[4] = wild-type CypH, read-out: Wild-Type Cyclophilin Prolyl Isomerase Inhibition IC50 Values, CypH
[5] = wild-type CypG, read-out: Wild-Type Cyclophilin Prolyl Isomerase Inhibition IC50 Values, CypG
[6] = prolyl-isomerase inhibition, 5 nM cyclophilin, read-out: IC50 CypB
[7] = wild-type CypB, read-out: Wild-Type Cyclophilin Prolyl Isomerase Inhibition IC50 Values, CypB
[8] = wild-type NKTR, read-out: Wild-Type Cyclophilin Prolyl Isomerase Inhibition IC50 Values, NKTR
[9] = wild-type CypA, read-out: Wild-Type Cyclophilin Prolyl Isomerase Inhibition IC50 Values, CypA

SMILES: NCCOCCNC(=O)[C@@H]1CCNC(=O)/C=C/C(=O)N2CCC[C@](Cc3ccccc3)(C2)C(=O)N[C@@H](Cc2ccc(-c3ccc(C(CC(=O)O)CC(=O)O)cc3)cc2)C(=O)NCc2ccccc2CC(=O)N1 [Compound B53]
- IC50 (PPIL1; Independent replicate 1, read-out: IC50 PPIL1): ~30 µM
- IC50 (PPIL1; Independent replicate 2, read-out: IC50 PPIL1): > 50 µM
- IC50 (PPIL1; Independent replicate 3, read-out: IC50 PPIL1): > 50 µM
- IC50 (PPIL1; Independent replicate 4, read-out: IC50 PPIL1): > 50 µM
- IC50 (PPIL1; prolyl-isomerase inhibition, 5 nM cyclophilin, read-out: IC50 PPIL1): > 50 µM
- IC50 (PPIL1; [1]): > 50 µM
- IC50 (CypC; Independent replicate 1, read-out: IC50 CypC): > 50 µM
- IC50 (CypC; Independent replicate 2, read-out: IC50 CypC): > 50 µM
- IC50 (CypC; Independent replicate 3, read-out: IC50 CypC): > 50 µM
- IC50 (CypC; Independent replicate 4, read-out: IC50 CypC): > 50 µM
- IC50 (CypC; prolyl-isomerase inhibition, 5 nM cyclophilin, read-out: IC50 CypC): > 50 µM
- IC50 (CypC; [2]): > 50 µM
- IC50 (CypA; Independent replicate 1, read-out: IC50 CypA): 3 ± 2 µM
- IC50 (CypA; Independent replicate 2, read-out: IC50 CypA): 3 ± 1 µM
- IC50 (CypA; Independent replicate 3, read-out: IC50 CypA): 4 ± 2 µM
- IC50 (CypA; Independent replicate 4, read-out: IC50 CypA): 4 ± 1 µM
- IC50 (CypA; prolyl-isomerase inhibition, 5 nM cyclophilin, read-out: IC50 CypA): 3.4 µM
- IC50 (CypE; Independent replicate 1, read-out: IC50 CypE): 0.6 ± 0.3 µM
- IC50 (CypE; Independent replicate 2, read-out: IC50 CypE): 0.9 ± 0.3 µM
- IC50 (CypE; Independent replicate 3, read-out: IC50 CypE): 0.6 ± 0.2 µM
- IC50 (CypE; Independent replicate 4, read-out: IC50 CypE): 1.1 ± 0.6 µM
- IC50 (CypE; [3]): 0.8 µM
- IC50 (CypH; Independent replicate 1, read-out: IC50 CypH): > 50 µM
- IC50 (CypH; Independent replicate 2, read-out: IC50 CypH): > 50 µM
- IC50 (CypH; Independent replicate 3, read-out: IC50 CypH): > 50 µM
- IC50 (CypH; Independent replicate 4, read-out: IC50 CypH): > 50 µM
- IC50 (CypH; prolyl-isomerase inhibition, 5 nM cyclophilin, read-out: IC50 CypH): > 50 µM
- IC50 (CypH; [4]): > 50 µM
- IC50 (CypG; Independent replicate 1, read-out: IC50 CypG): ~50 µM
- IC50 (CypG; Independent replicate 2, read-out: IC50 CypG): > 50 µM
- IC50 (CypG; Independent replicate 3, read-out: IC50 CypG): > 50 µM
- IC50 (CypG; Independent replicate 4, read-out: IC50 CypG): > 50 µM
- IC50 (CypG; prolyl-isomerase inhibition, 5 nM cyclophilin, read-out: IC50 CypG): > 50 µM
- IC50 (CypG; [5]): > 50 µM
- IC50 (CypB; CypB (comparator for CypB E121S), read-out: Mutant Cyclophilin Prolyl Isomerase Inhibition IC50 Values, CypB): 0.5 µM
- IC50 (CypB; Independent replicate 2, read-out: IC50 CypB): 1.6 ± 0.6 µM
- IC50 (CypB; Independent replicate 3, read-out: IC50 CypB): 1.1 ± 0.5 µM
- IC50 (CypB; Independent replicate 4, read-out: IC50 CypB): 1.3 ± 0.8 µM
- IC50 (CypB; [6]): 1.1 µM
- IC50 (CypB; prolyl-isomerase inhibition, read-out: IC50 CypB): 1.1 µM
- IC50 (CypB; [7]): 1.1 µM
- IC50 (NKTR; Independent replicate 1, read-out: IC50 NKTR): > 50 µM
- IC50 (NKTR; Independent replicate 2, read-out: IC50 NKTR): > 50 µM
- IC50 (NKTR; Independent replicate 3, read-out: IC50 NKTR): > 50 µM
- IC50 (NKTR; Independent replicate 4, read-out: IC50 NKTR): > 50 µM
- IC50 (NKTR; prolyl-isomerase inhibition, 5 nM cyclophilin, read-out: IC50 NKTR): > 50 µM
- IC50 (NKTR; [8]): > 50 µM

- IC50 (PPIL1; [1]): > 10 µM
- IC50 (CypC; [2]): > 10 µM
- IC50 (CypA; [9]): > 10 µM
- IC50 (CypE; [3]): > 10 µM
- IC50 (CypH; [4]): > 10 µM
- IC50 (CypG; [5]): > 10 µM
- IC50 (CypB; [7]): > 10 µM
- IC50 (NKTR; [8]): > 10 µM
SMILES: C[N+]1=C(C=CC=CC=C2N(CCCCCC(=O)NCCNC(=O)C3CCNC(=O)C=CC(=O)N4CCCC(Cc5ccccc5)(C4)C(=O)NC(Cc4ccc(-c5ccc(CC(C(=O)O)C(=O)O)cc5)cc4)C(=O)NCc4ccccc4CC(=O)N3)c3ccccc3C2(C)C)C(C)(C)c2ccccc21 (stereo not drawn) [*B52-Cy5]

- IC50 (PPIL1; [1]): > 10 µM
- IC50 (CypC; [2]): > 10 µM
- IC50 (CypA; [9]): > 10 µM
- IC50 (CypE; [3]): > 10 µM
- IC50 (CypH; [4]): > 10 µM
- IC50 (CypG; [5]): > 10 µM
- IC50 (CypB; [7]): > 10 µM
- IC50 (NKTR; [8]): > 10 µM
SMILES: C[N+]1=C(C=CC=CC=C2N(CCCCCC(=O)NCCNC(=O)C3CCNC(=O)C=CC(=O)N4CCCC(Cc5ccccc5)(C4)C(=O)NC(Cc4ccc(-c5ccc(C(CC(=O)O)CC(=O)O)cc5)cc4)C(=O)NCc4ccccc4CC(=O)N3)c3ccccc3C2(C)C)C(C)(C)c2ccccc21 (stereo not drawn) [*B53-Cy5]

- IC50 (PPIL1; [1]): > 2 µM
- IC50 (CypC; [2]): > 2 µM
- IC50 (CypA; [9]): 0.3 µM
- IC50 (CypE; [3]): 1.1 µM
- IC50 (CypH; [4]): > 2 µM
- IC50 (CypG; [5]): > 2 µM
- IC50 (CypB; [6]): ~1.5 µM
- IC50 (CypB; [7]): 1.5 µM
- IC50 (NKTR; [8]): > 2 µM
SMILES: C[N+]1=C(C=CC=CC=C2N(CCCCCC(=O)NCCNC(=O)C3CCNC(=O)C=CC(=O)N4CCCC(Cc5ccccc5)(C4)C(=O)NC(Cc4ccc(-c5ccc(C(CC(=O)O)CC(=O)O)cc5)cc4)C(=O)NCc4ccccc4CC(=O)N3)c3ccccc3C2(C)C)C(C)(C)c2ccccc21 (stereo not drawn) [Compound B53-Cy5]
